One test concerns calf thymus DNA. Description: Equilibrium dialysis, dark binding (association constant). The settings on record: for Ka: 4°C, five days, dark, isopsoralen:DNA base pair ratio 1:15. The procedure: Equilibrium Dialysis was used to determine the association ("dark binding") constants of AMIP, AMDMIP and MIP with calf thymus DNA. The tritium labelled isopsoralens were used for the experiment. The method was a modification of that of Isaacs et al. Biochemistry 16, 1058-1066 (1977).
Spectrapor 2 dialysis tubing (Spectrum) was pretreated by boiling in saturated sodium bicarbonate then rinsed thoroughly with double distilled water. Calf thymus DNA (Sigma) was prepared at a concentration of 50 µg/ml in 1 X TE. The samples were prepared by placing 1.0 ml of the DNA solution inside the bag and using enough isopsoralen to provide an isopsoralen:DNA base pair ratio of 1:15. The samples were prepared with the tritiated isopsoralen ("Drug") placed either inside or outside
of the dialysis bag (each sample was placed in a scintillation vial containing a small magnetic stir bar). The samples were stirred at 4°C for five days in the dark. After this period the bags were removed, opened, and the radioactivity inside and outside the bag determined by scintillation counting. The concentration of the DNA was determined by measuring optical density at 260 nm. The […] constant (Ka) was calculated from this information (Table 9). Preparing the samples in duplicate with the isopsoralen both inside and outside the dialysis bag provided a check that the system had come to equilibrium at the end of the dialysis period (the amount of isopsoralen inside and outside the bag at equilibrium should be, and was, the same in both cases).
The association constant, Ka is defined here as Ka = ([P:DNA])/([P] [DNA]) [formula] for the reaction P + DNA = P:DNA where p = free drug in solution, DNA = DNA binding site for the drug, and P:DNA = drug associated with the DNA. The following summarizes the Ka values determined for the compounds: […]
In general terms: Equilibrium dialysis compares concentrations on both sides of a semipermeable membrane.

In the next test the test system is E. Coli DNA Polymerase. Kind of test: Primer extension on site-specific 71-mer monoadduct template. It counts as biochemical. Particulars: 37°C for 0, 5 or 15 minutes, PAGE, autoradiography. An excerpt:
(§1) The sequences that are presented in Figure 26 describe several oligonucleotides that are used in the synthesis of either a normal 71-mer or the identical 71-mer containing a site-specifically placed psoralen or isopsoralen monoadduct. The 71-mer is a sub-sequence of the Human Immunodeficiency Virus (HIV) sequence. (An HIV DNA system is described in a co-pending application, Serial No. 225,725.) SK-39 is a primer oligonucleotide that is complementary to the 3' end of the 71-mers. This primer oligonucleotide can be extended on the 71-mer template to make a complementary strand of the 71-mer.
(§2) Preparation of 71-mers which contain site-specific monoadducts involves 1) preparation of different 15-mer monoadducts from the same unmodified 15-mer (HRI-42), and 2) ligation of the different 15-mer monoadducts to the same 56-mer "extender oligonucleotide" (HRI 102) using a 25-mer oligonucleotide (HRI-45) as a splint. The arrows in Figure 27 indicate the direction of synthesis, while the monoadduct is indicated by a short line that is perpendicular to the oligomer. While each of the 71-mer monoadducts contains the adduct at a base position that is greater than 56 bases from the 5' end, the precise position of the monoadduct is not meant to be indicated.
(§3) To prepare the 15-mer adducts, the 15-mer was incubated with a complementary 10-mer along with psoralen or isopsoralen under hybridization conditions. The mixture was then irradiated to provide the monoadducted 15-mer. While the invention is not dependent on knowing the precise mechanism of coupling, it has generally been believed that the 10-mer directs the isopsoralen to a single TpA site within the double-stranded helix formed by the 10-mer/15-mer hybrid. After isolation of an HPLC peak believed to contain the 15-mer with a single psoralen or isopsoralen monoadduct, these 15-mer monoadducts were ligated to a 56-mer extender in order to provide the monoadducted 71-mers for use as polymerase templates. The ligation reaction therefore utilized three oligonucleotides: the particular psoralen or isopsoralen monoadducted 15-mer, the 56-mer extender, and the 25-mer splint. The ligation complex was hybridized together then ligated. The ligated product was then isolated as a single band by denaturing PAGE.
(§4) To provide highly purified 71-mers which contain a single monoadduct, it was necessary to provide highly purified 15-mer monoadduct prior to the ligation step. This was accomplished by repurification of the HPLC purified monoadducted 15-mers by PAGE. In this way, essentially all the non-monoadducted 15-mer was removed prior to ligation. Separation of 15-mer monoadduct from unmodified 15-mer was readily accomplished by PAGE (while the same technique is not effective for separation of the corresponding unmodified 71-mer and monoadducted 71-mer sequences). In this manner, exceedingly pure monoadducted 71-mers were produced for the primer extension reactions; monoadducted 71-mers (as well as unmodified 71-mers) are used in template-dependent enzymatic extension experiments in examples 43-47 below.
(§5) In this experiment, monoadducted 71-mers (as well as unmodified 71-mers) were used in template-dependent enzymatic extension. AMIP, AMDMIP, and MIP 71-mer monoadducts were made as in Example 17. […] Note that the 3' end of the 71-mer (HRI 55) is complementary to the primer (SK-39) (see also Figure 26). Each of the extension experiments were run at 37°C for 0, 5 or 15 minutes. Each of the reactions were initiated by providing the templates and deoxyribonucleoside 5'-triphosphates (dATP, dGTP, dCTP, and dTTP are collective abbreviated as dNTPs), and by adding the particular polymerase last to start the reaction. For detection, the primer extension reaction utilized 5' ^32P-labelled primer. The reactions were stopped by adding EDTA. Analysis was by denaturing PAGE followed by autoradiography. […]

A further test has as its system Klenow Polmerase. The test is described as above. The settings on record: 37°C for 0, 5 or 15 minutes, PAGE, autoradiography. The test is classed as biochemical.
From the text: as §1, §2, §3, §4, §5

A further test has as its system Reverse Transcriptase. The test is described as above. The test is classed as biochemical. The settings on record: 37°C for 0, 5 or 15 minutes, PAGE, autoradiography.
From the text: as §1, §2, §3, §4, §5

The next test has as its system T4 Polymerase. The test is described as above. It counts as biochemical. Particulars: 37°C for 0, 5 or 15 minutes, PAGE, autoradiography.
From the text: as §1, §2, §3, §4, §5

Where [1] appears, read: tritiated drug placed inside dialysis bag.
The mark [2] stands for this setting: tritiated drug placed outside dialysis bag.

E. Coli DNA Polymerase, sequence (P00582 whole entry): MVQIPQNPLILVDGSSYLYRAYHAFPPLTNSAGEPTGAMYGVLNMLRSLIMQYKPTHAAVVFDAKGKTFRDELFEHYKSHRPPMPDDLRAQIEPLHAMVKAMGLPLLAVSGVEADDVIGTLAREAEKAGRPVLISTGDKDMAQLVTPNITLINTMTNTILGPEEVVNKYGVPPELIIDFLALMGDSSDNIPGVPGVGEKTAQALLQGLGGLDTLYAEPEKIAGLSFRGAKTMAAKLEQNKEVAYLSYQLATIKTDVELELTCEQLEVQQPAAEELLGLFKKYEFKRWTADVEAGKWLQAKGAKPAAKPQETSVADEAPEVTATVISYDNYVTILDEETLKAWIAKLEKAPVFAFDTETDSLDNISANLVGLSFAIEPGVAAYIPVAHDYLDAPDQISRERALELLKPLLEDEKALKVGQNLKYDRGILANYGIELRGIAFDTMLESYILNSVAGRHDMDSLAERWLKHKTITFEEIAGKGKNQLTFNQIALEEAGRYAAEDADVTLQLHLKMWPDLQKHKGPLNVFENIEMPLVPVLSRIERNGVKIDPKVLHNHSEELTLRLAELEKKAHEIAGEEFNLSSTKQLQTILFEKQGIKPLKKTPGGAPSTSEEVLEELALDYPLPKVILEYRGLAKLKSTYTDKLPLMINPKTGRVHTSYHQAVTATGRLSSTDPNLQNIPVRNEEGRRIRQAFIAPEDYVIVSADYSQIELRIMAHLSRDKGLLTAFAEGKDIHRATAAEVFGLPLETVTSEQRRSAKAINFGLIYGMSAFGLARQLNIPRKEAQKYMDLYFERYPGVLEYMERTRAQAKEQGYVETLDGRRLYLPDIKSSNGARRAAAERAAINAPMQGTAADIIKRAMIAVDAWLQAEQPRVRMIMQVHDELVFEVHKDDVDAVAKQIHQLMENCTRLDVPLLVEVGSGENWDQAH

As for “4'-Aminomethyl-4,5'-dimethylisopsoralen [AMDMIP]”, the Ka with calf thymus DNA (setting [1]) is 7.66 x 10^4; in the test with calf thymus DNA (setting [2]), 1.07 x 10^5. Besides, the “polymerase stop at adduct (primer extension)” value (from here on “polymerase stop at adduct”) in the test on E. Coli DNA Polymerase, with Klenow Polmerase, in the test on Reverse Transcriptase and in the test with T4 Polymerase was “complete stop” throughout.
For 5-Aminomethylisopsoralen [AMIP], the “Ka relative to AMDMIP” value in the test on calf thymus DNA (compared with AMDMIP) was found to be 28%. The figures for the Ka in the test with calf thymus DNA (setting [1]) and in the test on calf thymus DNA (setting [2]) were 2.96 x 10^4 and 2.21 x 10^4, respectively. Further, the “polymerase stop at adduct” value was “not complete stops” in the test with E. Coli DNA Polymerase, “not complete stops” in the test on Klenow Polmerase, “complete stops” in the test on Reverse Transcriptase and “complete stops” with T4 Polymerase.
For `Cc1cc2occc2c2oc(=O)ccc12` [MIP, 5-Methylisopsoralen], the Ka with calf thymus DNA (setting [1]) is recorded as 9.08 x 10^3; in the test with calf thymus DNA (setting [2]) it was 2.07 x 10^3. Moreover, the “polymerase stop at adduct” value with E. Coli DNA Polymerase is listed as “not complete stops”; in the test with Klenow Polmerase it was “not complete stops”; in the test on Reverse Transcriptase, “complete stops”; in the test on T4 Polymerase, “complete stops”.
